Assay results as given in PMC1084334 (PLoS Biology, 2005).
Like-named read-outs stand apart in the source and are kept apart here. One block for each molecule: values may come before it.

Assays:
SynGUN4 [1] = target: T1, SynGUN4 (Synechocystis sp. PCC 6803, UniProt P72583); assay: tryptophan fluorescence quenching; type: binding
T1 construct: gene sll0558; full length, residues 1-233; E. coli BL21(DE3)

SynGUN4 [2] = target: T2, SynGUN4 (Synechocystis sp. PCC 6803, UniProt P72583, R113A); assay: tryptophan fluorescence quenching; type: binding; settings: read-out: dissociation constant
T2 construct: gene sll0558; full length, residues 1-233; E. coli BL21(DE3)
T2 sequence (P72583 whole entry R113A, the tested form may be a part): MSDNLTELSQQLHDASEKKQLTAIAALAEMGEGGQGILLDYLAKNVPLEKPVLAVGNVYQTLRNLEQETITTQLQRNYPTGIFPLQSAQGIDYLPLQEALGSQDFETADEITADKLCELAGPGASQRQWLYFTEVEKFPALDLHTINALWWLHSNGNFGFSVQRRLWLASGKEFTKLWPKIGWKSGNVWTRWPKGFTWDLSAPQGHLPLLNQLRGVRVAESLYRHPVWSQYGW
Source text: (§1) tryptophan fluorescence quenching on SynGUN4

SynGUN4 [3] = target: T3, SynGUN4 (Synechocystis sp. PCC 6803, UniProt P72583, L222A); assay: tryptophan fluorescence quenching; type: binding; settings: read-out: dissociation constant
T3 construct: gene sll0558; full length, residues 1-233; E. coli BL21(DE3)
T3 sequence (P72583 whole entry L222A, the tested form may be a part): as the sequence (P72583 whole entry R113A, the tested form may be a part) above, with A113R, L222A counted along it
Source text: as §1

SynGUN4 [4] = target: T4, SynGUN4 (Synechocystis sp. PCC 6803, UniProt P72583, R214A); assay: tryptophan fluorescence quenching; type: binding; settings: read-out: dissociation constant
T4 construct: gene sll0558; full length, residues 1-233; E. coli BL21(DE3)
T4 sequence (P72583 whole entry R214A, the tested form may be a part): as the sequence (P72583 whole entry R113A, the tested form may be a part) above, with A113R, R214A counted along it
Source text: as §1

SynGUN4 [5] = target: T5, SynGUN4 (Synechocystis sp. PCC 6803, UniProt P72583, A219G); assay: tryptophan fluorescence quenching; type: binding; settings: read-out: dissociation constant
T5 construct: gene sll0558; full length, residues 1-233; E. coli BL21(DE3)
T5 sequence (P72583 whole entry A219G, the tested form may be a part): as the sequence (P72583 whole entry R113A, the tested form may be a part) above, with A113R, A219G counted along it
Source text: as §1

[6] = substrate: CC1=C(CCC(=O)O)c2cc3nc(cc4[nH]c(cc4C)cc4[nH]c(cc1n2)cc4C)C(C)=C3CCC(=O)O; assay: Mg-Deutero formation by fluorescence; type: biochemical, Synechocystis sp. PCC 6803; settings: no SynGUN4, 200 nM ChlH (methods: 0.1 μM ChlH), 20 mM MgCl2, 5 mM ATP, 50 mM MOPS-KOH pH 7.7, 1 mM DTT, 34 °C

T1 sequence (P72583 whole entry, the tested form may be a part): as the sequence (P72583 whole entry R113A, the tested form may be a part) above, with A113R counted along it

Kd (SynGUN4 [1]; 50 mM MOPS-KOH pH 7.7, 150 mM NaCl, 1 mM DTT, one-site fit): 2.67 ± 0.856 µM
Molecule: C=CC1=C(C)C2=NC1=Cc1c(C)c(C=C)c3[n]1[Co+][n]1c(c(C)c(CCC(=O)O)c1=CC1=NC(=C3)C(C)=C1CCC(=O)O)=C2 [Co-Proto]

Kd (SynGUN4 [1]): 0.865 ± 0.146 µM | Kd (SynGUN4 [2]): 7.83 ± 1.99 µM | Kd (SynGUN4 [3]): 6.61 ± 1.02 µM | Kd (SynGUN4 [4]): 10.9 ± 4.06 µM | Kd (SynGUN4 [5]): 1.56 ± 0.459 µM
Molecule: CC1=C(CCC(=O)O)c2cc3nc(cc4[nH]c(cc4C)cc4[nH]c(cc1n2)cc4C)C(C)=C3CCC(=O)O [Deutero]

B1: Synechocystis Mg-chelatase (ChlH, ChlD, ChlI) (Synechocystis sp. PCC 6803 substr. Kazusa) (protein)
chain: MFTNVKSTIRRVDPEALNGRQLLKVVYVVLESQYQSALSAAVRNINRTNSSLAIQLTGYLIEELRDPENYANFKHDVSEANLFIASLIFIEDLADKVVEAVTPYRDNLDAAIVFPSMPQVMRLNKMGSFSMAQLGQSKSAIAQFMKKRKENSSGAGFQDAMLKLLRTLPTVLKYLPVEKAQDARNFMLSFQYWLGGSQENLENFLLMLTDKYVYPDLGLDKLVNYQEPVVYPDMGIWHPLSMQMFENVKDYLEWYNQRPDISEDLKDPLAPCIGLIMQRTHLVTGDDAHYVGMVQELEAMGARVICVFSGGLDFSKPVNEYFWDKSVNGVEPLPIVDAVVSLTGFALVGGPARQDHPRAIESLKKLNRPYMCALPLVFQTTEEWEASDLGLHPIQVALQIAIPELDGAIEPIILSGRDGSTGRAIALQDRLEAIAQRAMKWANLRKKPKLDKKVAITVFSFPPDKGNVGTAAYLDVFGSIYEVMKGLQGNGYDVQDLPGSAKELMEAVIHDAQAQYNSPELNIAHRMSVEQYERLTPYSVRLEENWGKPPGHLNSDGQNLLIYGKEFGNVFIGVQPTFGYEGDPMRLLFSRSASPHHGFAAYYTYLNHIWKADAVLHFGTHGSLEFMPGKQMGMSGECYPDNLIGTIPNLYYYAANNPSEATIAKRRGYASTISYLTPPAENAGLYKGLQELNELIGSYQTLKDSGRGIQIVNTIMDQARICNLDQDVNLPDINAEEMDQGQRDTIVGSVYRKLMEIESRLLPCGLHVIGQPPSAEEAIATLVNIASLDREDEGIWALPTLIAESIGRNMEEIYRNSDKGILADVELLQDITLATRAAVAALVQEQINADGRVSFVSKLNFFKIGKKAPWVKSLCDSGYPNVNEEKLKPLFEYLEFCLEQVCADNEFGGLLQALEGEYVLPGPGGDPIRNPNVLPTGKNIHALDPQSIPTLAAVQSAKVVVDRLLERQRAENGGNYPETIASVLWGTDNIKTYGESLAQIMWMVGAKPVPDALGRVNKIELVPLEELGRPRIDVVVNCSGVFRDLFINQMNLLDQAVKLAAEADEPLEMNFVRKHALEQAEEMGIGVREAATRIFSNASGSYSSNVNLAVENSSWEDESELQEMYLKRKSFAFNSDNPGMMDQNRDMFERALKTADATFQNLDSSEISLTDVSHYFDSDPTKLISTLRDDGKAPAAYIADTTTANAQVRTLSETVRLDARTKLLNPKWYEGMLSHGYEGVRELSKRLVNTMGWSATAGAVDNWVYEDANSTFIKDEEMCKRLMDLNPNSFRRMVSTLLEVNGRGYWETSDENLERLQELYQEVEDRIEGVE
notes: with Magnesium-chelatase subunit ChlD; Magnesium-chelatase subunit ChlI
Km [6]: 7.46 ± 3.24 µM
